Assay results reported in patent publication US20160089321A1, “ANTIPERSPIRANT COMPOSITIONS” (Johnson & Johnson Consumer Inc., priority 2014, published 2016).

Tests used:
[1] = Turbidity measurement caused by gel polymerization in alkaline pH (turbidimeter); type: physicochemical; conditions: for Potential to gel polymerize in an alkaline environment: summary of Table 1
Description: In this test, a Hach model 2100 lab turbidimeter was used. One solution containing sodium hydroxide at pH 8.5 was prepared and each compound was tested at 10% concentration after mixing. […] The insoluble gel formed should act as an obstruction at the orifice of the sweat gland, reducing the flow of axillary perspiration.

[2] = biological target: T1, Bovine serum albumin (BSA) (Bos taurus, UniProt P02769); assay: In vitro active-protein interaction: BSA precipitation by the Bradford method; type: biochemical; conditions: for Precipitation (BSA): screening test, 10% active solution; for Precipitation (BSA) / % BSA Precipitation: buffer pH 4.9; for % BSA Precipitation: dose-response assay
T1 construct: add 4 g of albumin (available from Sigma-Aldrich) from bovine serum (BSA) to 2000 mL of buffer solution; purchased Sigma-Aldrich A7906; host or cells: bovine serum (natural source)
Description: Method 2: In Vitro Study to Evaluate Active-Protein Interaction
Bovine serum albumin (BSA) was used as the reference protein to generate the calibration curve. […] The BSA granular, the BSA solution standard and Bradford reagent were all obtained from Sigma-Aldrich (Catalog Number: A7906, PO834, B6916). The buffer solution was made by adding 875 mL of 0.1 Molar sodium hydroxide (SpecSol) to 125 mL 0.1 Molar potassium dihydrogen phosphate (Merck) and its pH was adjusted to BSA isoelectric point (pH 4.9).
1. Prepare buffer by adding 875 mL of 0.1 Molar sodium hydroxide to 125 mL of 0.1 Molar potassium dihydrogen phosphate, adjusted to pH 4.9. This is the buffer solution used to make the active sample solution, the dose-response curve and the protein solution.
2. To prepare an active sample solution for initial screening, add 5 g of the active material to 50 mL of the buffer solution.
3. To prepare the protein solution, add 4 g of albumin (available from Sigma-Aldrich) from bovine serum (BSA) to 2000 mL of buffer solution.
4. To prepare the reaction solution, add 10 mL of the sample solution (step 2) to 50 mL of the protein solution.
5. To prepare the analytical solution, after filtration through a 0.45 μm membrane, 0.01 mL of reaction solution (step 4) to 3 mL of the Bradford reagent. Measure and record the absorbance at 595 nm. Determine the protein concentration by comparison to the standard curve.

[3] = compound at 10% in sodium hydroxide solution pH 8.5
[4] = mean turbidity, compound at 10% in sodium hydroxide solution pH 8.5

T1 sequence (P02769 25-607): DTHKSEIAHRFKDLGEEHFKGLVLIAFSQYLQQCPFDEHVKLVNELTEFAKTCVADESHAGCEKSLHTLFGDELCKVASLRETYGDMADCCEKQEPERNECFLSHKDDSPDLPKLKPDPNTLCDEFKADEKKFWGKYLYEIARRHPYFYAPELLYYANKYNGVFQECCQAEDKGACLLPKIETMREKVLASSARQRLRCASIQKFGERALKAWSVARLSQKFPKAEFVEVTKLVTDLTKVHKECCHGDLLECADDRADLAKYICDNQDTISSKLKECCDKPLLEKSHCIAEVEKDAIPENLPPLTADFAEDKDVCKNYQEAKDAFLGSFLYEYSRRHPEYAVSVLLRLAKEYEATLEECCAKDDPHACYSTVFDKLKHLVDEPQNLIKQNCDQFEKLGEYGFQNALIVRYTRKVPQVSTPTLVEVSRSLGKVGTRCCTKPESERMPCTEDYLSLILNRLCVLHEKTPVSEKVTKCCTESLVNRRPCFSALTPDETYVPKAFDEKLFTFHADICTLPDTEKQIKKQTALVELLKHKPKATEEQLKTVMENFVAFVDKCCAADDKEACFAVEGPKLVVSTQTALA

Compound	Physical Observation [1, 3]	Turbidity pH 8.5 [1, 4]	Precipitation (BSA) [2]	further results
CC(O)C(=O)O.N (stereo not shown) [Ammonium lactate]	Liquid	1.2 NTU		
N.N.O=S(=O)(O)O [Ammonium sulfate]	Liquid	1.1 NTU		
CC(=O)[O-].CC(=O)[O-].[Ca+2] [Calcium acetate]			5%	Physical Observation ([1]; pH 8.5): Liquid; Turbidity pH 8.5 ([1]; pH 8.5): 20.0 NTU
CC(O)C(=O)[O-].CC(O)C(=O)[O-].[Ca+2] (stereo not shown) [Calcium lactate]	Liquid	0.9 NTU		
[Mg+2].[O-][Cl+2]([O-])[O-].[O-][Cl+2]([O-])[O-] [Magnesium chlorate]	Liquid	0.4 NTU	4%	
O.O=S(=O)([O-])[O-].[Mg+2] [Magnesium sulfate 1•H2O]	Liquid	0.9 NTU	11%	
O.O.O.O.O.O=S(=O)([O-])[O-].[Mg+2] [Magnesium sulfate 5•H2O]	Liquid	1.5 NTU	10%	
O.O.O.O.O.O.O.O=S(=O)([O-])[O-].[Mg+2] [Magnesium sulfate 7•H2O]	Liquid	1.5 NTU	12%	
O=S(=O)([O-])[O-].[Mg+2] [Magnesium sulfate Andros]	Liquid	0.5 NTU	8%	
CC(=O)[O-].[Na+] [Sodium acetate]			5%	Physical Observation ([1]; pH 8.5): Liquid; Turbidity pH 8.5 ([1]; pH 8.5): 0.9 NTU
CC(O)C(=O)[O-].[Na+] (stereo not shown) [Sodium lactate]	Liquid	0.5 NTU		
O=S(=O)([O-])[O-].[Na+].[Na+] [Sodium sulfate]				Physical Observation ([1]; pH 8.5): Liquid; Turbidity pH 8.5 ([1]; pH 8.5): 1.8 NTU
CC(O)C(=O)[O-].CC(O)C(=O)[O-].[Zn+2] (stereo not shown) [Zinc Lactate (food), zinc lactate]	Gel Polymerization	525.5 NTU		Potential to gel polymerize in an alkaline environment [1]: high potential to gel polymerize
CC(O)C(=O)[O-].CC(O)C(=O)[O-].[Zn+2] (stereo not shown) [Zinc Lactate (pharma), zinc lactate]	Gel Polymerization	538.0 NTU		Potential to gel polymerize in an alkaline environment [1]: high potential to gel polymerize
O=S(=O)([O-])c1ccc(O)cc1.O=S(=O)([O-])c1ccc(O)cc1.[Zn+2] [Zinc Phenolsulfonate, zinc phenolsulfonate]	Liquid	1.8 NTU	18%	% BSA Precipitation ([2]; 1% solution): 5%; % BSA Precipitation ([2]; 5% solution): −1%; % BSA Precipitation ([2]; 10% solution): 21%; % BSA Precipitation ([2]; 15% solution): 31%; Potential to be clogging agents (protein precipitation) ([2]; summary of Tables 2 and 3): demonstrated potential to be clogging agents
Aluminum chlorohydrate [reference compound]				% BSA Precipitation ([2]; 1% solution): 24%; % BSA Precipitation ([2]; 5% solution): 56%; % BSA Precipitation ([2]; 10% solution): 79%; % BSA Precipitation ([2]; 15% solution): 95%
aluminum sesquichlorohydrate [Aluminium Sesquichlorohydrate, reference compound]	Gel Polymerization	593.0 NTU	100%	
